Experimental data taken from the NIST ThermoML archive (doi:10.1016/j.jct.2011.04.018).
± gives the expanded uncertainty stated by the source.

Assay: activity coefficient (dimensionless); of the first substance listed, at infinite dilution; xn = mol fraction of the nth substance listed
Settings: 101 kPa, Liquid, Chromatography, x1 = 0

Row | Structure (SMILES) | activity coefficient (318.15 K) | activity coefficient (328.15 K) | activity coefficient (338.15 K) | activity coefficient (348.15 K) | activity coefficient (358.15 K) | activity coefficient (368.15 K) | activity coefficient (378.15 K) | activity coefficient (308.15 K)
1 | Cc1ccccc1C [1,2-dimethylbenzene] + O=S(=O)([N-]S(=O)(=O)C(F)(F)F)C(F)(F)F.OCCC[n+]1ccccc1 | 3.11 ± 0.21 | 3.12 ± 0.21 | 3.13 ± 0.21 | 3.13 ± 0.21 | 3.14 ± 0.21 | 3.15 ± 0.21 | 3.15 ± 0.21 | –
2 | Cc1cccc(C)c1 [1,3-dimethylbenzene] + O=S(=O)([N-]S(=O)(=O)C(F)(F)F)C(F)(F)F.OCCC[n+]1ccccc1 | 3.58 ± 0.24 | 3.58 ± 0.24 | 3.59 ± 0.24 | 3.6 ± 0.25 | 3.6 ± 0.25 | 3.61 ± 0.25 | 3.62 ± 0.25 | –
3 | Cc1ccc(C)cc1 [1,4-dimethylbenzene] + O=S(=O)([N-]S(=O)(=O)C(F)(F)F)C(F)(F)F.OCCC[n+]1ccccc1 | 3.58 ± 0.24 | 3.6 ± 0.25 | 3.61 ± 0.25 | 3.62 ± 0.25 | 3.63 ± 0.25 | 3.64 ± 0.25 | 3.65 ± 0.25 | –
4 | C1COCCO1 [1,4-dioxane] + O=S(=O)([N-]S(=O)(=O)C(F)(F)F)C(F)(F)F.OCCC[n+]1ccccc1 | 0.514 ± 0.038 | 0.541 ± 0.04 | 0.568 ± 0.041 | 0.595 ± 0.042 | 0.621 ± 0.043 | 0.647 ± 0.044 | 0.672 ± 0.046 | –
5 | C=CCCCCCCCC [1-decene] + O=S(=O)([N-]S(=O)(=O)C(F)(F)F)C(F)(F)F.OCCC[n+]1ccccc1 | 128 ± 9 | 115 ± 8 | 104 ± 7 | 95.2 ± 6.5 | 86.6 ± 5.9 | 79.7 ± 5.5 | – | 142 ± 10
6 | C=CCCCCC [1-heptene] + O=S(=O)([N-]S(=O)(=O)C(F)(F)F)C(F)(F)F.OCCC[n+]1ccccc1 | 33.1 ± 2.3 | 30.7 ± 2.1 | 28.5 ± 1.9 | 26.7 ± 1.8 | 25.2 ± 1.7 | 23.7 ± 1.6 | – | 35.7 ± 2.4
7 | C#CCCCCC [1-heptyne] + O=S(=O)([N-]S(=O)(=O)C(F)(F)F)C(F)(F)F.OCCC[n+]1ccccc1 | 9.81 ± 0.67 | 9.53 ± 0.65 | 9.21 ± 0.63 | 9 ± 0.61 | 8.74 ± 0.6 | 8.55 ± 0.58 | – | 10.1 ± 0.7
8 | C#CCCCC [1-hexyne] + O=S(=O)([N-]S(=O)(=O)C(F)(F)F)C(F)(F)F.OCCC[n+]1ccccc1 | 6.25 ± 0.43 | 6.13 ± 0.42 | 6 ± 0.41 | 5.91 ± 0.4 | 5.8 ± 0.4 | 5.72 ± 0.39 | – | 6.38 ± 0.43
9 | C#CCCCCCC [1-octyne] + O=S(=O)([N-]S(=O)(=O)C(F)(F)F)C(F)(F)F.OCCC[n+]1ccccc1 | 15.5 ± 1.1 | 14.9 ± 1 | 14.2 ± 1 | 13.7 ± 0.9 | 13.2 ± 0.9 | 12.7 ± 0.9 | – | 16.2 ± 1.1
10 | C=CCCC [1-pentene] + O=S(=O)([N-]S(=O)(=O)C(F)(F)F)C(F)(F)F.OCCC[n+]1ccccc1 | 13.5 ± 0.9 | 12.7 ± 0.9 | 12 ± 0.8 | 11.5 ± 0.8 | – | – | – | 14.2 ± 1
11 | CC(C)CC(C)(C)C [2,2,4-trimethylpentane] + O=S(=O)([N-]S(=O)(=O)C(F)(F)F)C(F)(F)F.OCCC[n+]1ccccc1 | 73.9 ± 5.1 | 67 ± 4.6 | 60.7 ± 4.2 | 55.7 ± 3.8 | 51.4 ± 3.5 | 47.3 ± 3.2 | – | 81.7 ± 5.6
12 | CCC(C)(C)C [2,2-dimethylbutane] + O=S(=O)([N-]S(=O)(=O)C(F)(F)F)C(F)(F)F.OCCC[n+]1ccccc1 | 37.3 ± 2.6 | 33.9 ± 2.3 | 30.9 ± 2.1 | 28.5 ± 1.9 | 26.3 ± 1.8 | – | – | 41 ± 3
13 | CCC(C)(C)OC [2-methoxy-2-methylbutane] + O=S(=O)([N-]S(=O)(=O)C(F)(F)F)C(F)(F)F.OCCC[n+]1ccccc1 | 4.45 ± 0.3 | 4.54 ± 0.31 | 4.61 ± 0.31 | 4.7 ± 0.32 | 4.77 ± 0.33 | 4.84 ± 0.33 | – | 4.37 ± 0.3
14 | COC(C)(C)C [2-methoxy-2-methylpropane] + O=S(=O)([N-]S(=O)(=O)C(F)(F)F)C(F)(F)F.OCCC[n+]1ccccc1 | 2.74 ± 0.19 | 2.83 ± 0.19 | 2.91 ± 0.2 | 3.01 ± 0.2 | 3.08 ± 0.21 | 3.18 ± 0.22 | – | 2.63 ± 0.18
15 | CCC(C)CC [3-methylpentane] + O=S(=O)([N-]S(=O)(=O)C(F)(F)F)C(F)(F)F.OCCC[n+]1ccccc1 | 40 ± 2.7 | 36.6 ± 2.5 | 33.3 ± 2.3 | 30.9 ± 2.1 | 28.5 ± 1.9 | – | – | 44 ± 3
16 | CC(=O)O [acetic acid] + O=S(=O)([N-]S(=O)(=O)C(F)(F)F)C(F)(F)F.OCCC[n+]1ccccc1 | 0.255 ± 0.03 | 0.277 ± 0.03 | 0.298 ± 0.031 | 0.32 ± 0.031 | 0.343 ± 0.032 | 0.367 ± 0.033 | 0.388 ± 0.034 | –
17 | CC(C)=O [acetone] + O=S(=O)([N-]S(=O)(=O)C(F)(F)F)C(F)(F)F.OCCC[n+]1ccccc1 | 0.403 ± 0.034 | 0.421 ± 0.035 | 0.437 ± 0.035 | 0.453 ± 0.036 | 0.469 ± 0.037 | 0.484 ± 0.037 | 0.5 ± 0.038 | –
18 | c1ccccc1 [benzene] + O=S(=O)([N-]S(=O)(=O)C(F)(F)F)C(F)(F)F.OCCC[n+]1ccccc1 | 1.58 ± 0.1 | 1.58 ± 0.1 | 1.59 ± 0.11 | 1.6 ± 0.11 | 1.61 ± 0.11 | 1.62 ± 0.11 | 1.62 ± 0.11 | –
19 | CCCCO [butan-1-ol] + O=S(=O)([N-]S(=O)(=O)C(F)(F)F)C(F)(F)F.OCCC[n+]1ccccc1 | 2.27 ± 0.15 | 2.14 ± 0.15 | 2.02 ± 0.14 | 1.91 ± 0.13 | 1.82 ± 0.12 | 1.73 ± 0.12 | 1.67 ± 0.11 | –
20 | C1CCCCCC1 [cycloheptane] + O=S(=O)([N-]S(=O)(=O)C(F)(F)F)C(F)(F)F.OCCC[n+]1ccccc1 | 32.8 ± 2.2 | 29.7 ± 2 | 26.9 ± 1.8 | 24.7 ± 1.7 | 22.9 ± 1.6 | 21.2 ± 1.4 | – | 36.3 ± 2.5
21 | C1CCCCC1 [cyclohexane] + O=S(=O)([N-]S(=O)(=O)C(F)(F)F)C(F)(F)F.OCCC[n+]1ccccc1 | 23.2 ± 1.6 | 21.1 ± 1.4 | 19.4 ± 1.3 | 17.9 ± 1.2 | 16.7 ± 1.1 | 15.5 ± 1.1 | – | 25.5 ± 1.7
22 | C1=CCCCC1 [cyclohexene] + O=S(=O)([N-]S(=O)(=O)C(F)(F)F)C(F)(F)F.OCCC[n+]1ccccc1 | 11 ± 0.8 | 10.4 ± 0.7 | 9.81 ± 0.67 | 9.31 ± 0.64 | 8.92 ± 0.61 | 8.52 ± 0.58 | – | 11.7 ± 0.8
